According to US12528819B2 (priority 2016, dated 2026):
Entries after “also recorded” stand apart in the source; their conditions may differ.

Experiments:
aged-impaired (AI) rats [1] = test: Radial Arm Maze (RAM) behavioral task, spatial memory retention; format: in vivo, rat; conditions: four-hour delay
Description: The effects of methyl 3,5-diphenylpyridazine-4-carboxylate on the in vivo spatial memory retention of aged-impaired (AI) rats were assessed in a Radial Arm Maze (RAM) behavioral task using vehicle control and four different dosage levels of methyl 3,5-diphenylpyridazine-4-carboxylate (0.1 mg/kg, 0.3 mg/kg, 1 mg/kg and 3 mg/kg, ip). RAM behavioral tasks were performed on eight AI rats. All five treatment conditions (vehicle and four dosage levels) were tested on all eight rats.
The RAM apparatus used consisted of eight equidistantly-spaced arms. An elevated maze arm (7 cm width×75 cm length) projected from each facet of an octagonal center platform (30 cm diameter, 51.5 cm height). Clear side walls on the arms were 10 cm high and were angled at 65° to form a trough. A food well (4 cm diameter, 2 cm deep) was located at the distal end of each arm. Froot Loops™ (Kellogg Company) were used as rewards. Blocks constructed of Plexiglas™ (30 cm height×12 cm width) could be positioned to prevent entry to any arm. Numerous extra maze cues surrounding the apparatus were also provided.
The AI rats were initially subjected to a pre-training test (Chappell et al. Neuropharmacology 37: 481-487, 1998). The pre-training test consisted of a habituation phase (4 days), a training phase on the standard win-shift task (18 days) and another training phase (14 days) in which a brief delay was imposed between presentation of a subset of arms designated by the experimenter (e.g., 5 arms available and 3 arms blocked) and completion of the eight-arm win-shift task (i.e., with all eight arms available).
In the habituation phase, rats were familiarized to the maze for an 8-minute session on four consecutive days. In each of these sessions, food rewards were scattered on the RAM, initially on the center platform and arms and then progressively confined to the arms. After this habituation phase, a standard training protocol was used, in which a food pellet was located at the end of each arm. Rats received one trial each day for 18 days. Each daily trial terminated when all eight food pellets had been obtained or when either 16 choices were made or 15 minutes had elapsed. After completion of this training phase, a second training phase was carried out in which the memory demand was increased by imposing a brief delay during the trial. At the beginning of each trial, three arms of the eight-arm maze were blocked. Rats were allowed to obtain food on the five arms to which access was permitted during this initial “information phase” of the trial. Rats were then removed from the maze for 60 seconds, during which time the barriers on the maze were removed, thus allowing access to all eight arms. […]

GABAA α5 receptor = biological target: T1, GABAA α5 receptor (Rattus norvegicus, UniProt P18508+P19969); test: GABAA α5 receptor occupancy with Ro 15-4513 tracer (hippocampus vs cerebellum); format: in vivo; conditions: i.v.
T1 construct: from tissue; host or cells: rat brain in vivo; hippocampus versus cerebellum
T1 sequence (P19969 32-464 limits assumed): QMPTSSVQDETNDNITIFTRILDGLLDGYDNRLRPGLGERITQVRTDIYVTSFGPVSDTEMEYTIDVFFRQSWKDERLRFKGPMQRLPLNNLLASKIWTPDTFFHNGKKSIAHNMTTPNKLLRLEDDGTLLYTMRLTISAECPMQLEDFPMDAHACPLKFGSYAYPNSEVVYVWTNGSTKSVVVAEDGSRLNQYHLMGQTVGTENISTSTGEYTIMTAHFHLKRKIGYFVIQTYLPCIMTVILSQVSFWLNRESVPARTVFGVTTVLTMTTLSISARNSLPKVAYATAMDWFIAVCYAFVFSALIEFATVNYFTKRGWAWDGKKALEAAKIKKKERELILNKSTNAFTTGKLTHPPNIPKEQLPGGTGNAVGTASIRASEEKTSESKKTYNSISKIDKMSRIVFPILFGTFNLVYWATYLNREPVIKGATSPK
T1 sequence (P18508 39-466): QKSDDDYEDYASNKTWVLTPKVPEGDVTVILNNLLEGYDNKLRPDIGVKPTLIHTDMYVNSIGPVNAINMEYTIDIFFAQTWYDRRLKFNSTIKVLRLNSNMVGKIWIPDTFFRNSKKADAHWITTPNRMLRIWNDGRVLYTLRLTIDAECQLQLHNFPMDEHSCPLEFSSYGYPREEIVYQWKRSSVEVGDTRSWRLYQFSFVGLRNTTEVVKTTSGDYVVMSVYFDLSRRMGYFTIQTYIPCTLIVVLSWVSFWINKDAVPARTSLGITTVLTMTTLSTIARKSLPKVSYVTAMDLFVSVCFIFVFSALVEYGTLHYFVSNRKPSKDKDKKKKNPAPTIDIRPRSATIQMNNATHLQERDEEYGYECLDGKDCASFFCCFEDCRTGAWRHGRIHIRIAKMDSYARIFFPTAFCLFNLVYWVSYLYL
Source text: Food and water were available ad libitum.

aged-impaired (AI) rats [2] = test: Morris water maze behavioral task, ICV infusion; format: in vivo, rat; conditions: 100 μg ICV
Description: The effects of 6,6 dimethyl-3-(3-hydroxypropyl)thio-1-(thiazol-2-yl)-6,7-dihydro-2-benzothiophen-4(5H)-one on the in vivo spatial memory retention of aged-impaired (AI) rats were assessed in a Morris water maze behavioral task. A water maze is a pool surrounded with a novel set of patterns relative to the maze.
Cognitively impaired aged rats were implanted unilaterally with a cannula into the lateral ventricle. Stereotaxic coordinates were 1.0 mm posterior to bregma, 1.5 mm lateral to midline, and 3.5 mm ventral to the skull surface. After about a week of recovery, the rats were pre-trained in a water maze for 2 days (6 trials per day) to locate a submerged escape platform hidden underneath the surface of the pool, in which the escape platform location varied from day to day. No intracerebroventricular (ICV) infusion was given during pre-training.
After pre-training, rats received ICV infusion of either 100 μg 6,6 dimethyl-3-(3-hydroxypropyl)thio-1-(thiazol-2-yl)-6,7-dihydro-2-benzothiophen-4(5H)-one (n=6) in 5 μl DMSO or vehicle DMSO (n=5) 40 min prior to water maze training and testing. Training consisted of 8 trials per day for 2 days where the hidden escape platform remained in the same location. Rats were given 60 seconds to locate the platform with a 60 seconds inter-trial interval. The rats were given a probe test (120 seconds) 24 hr. after the end of training where the escape platform was removed. During the training, there were 4 blocks, where each block had 4 training trials.
During a test trial 24 hr. after training, the escape platform was removed. The search/swim pattern of the rats was used to measure whether the rats remember where the escape platform was located during pre-trial training in order to test for the long-term memory of the rats. In this trial, “target annulus” is a designated area 1.5 times the size of the escape platform around the area where the platform was located during pre-trial training. “Opposite annulus” is a control area of the same size as the size of the target annulus, which is located opposite to the target annulus in the pool. If the rats had good long term memory, they would tend to search in the area surrounding the location where the platform was during the pre-trial training (i.e., the “target” annulus; and not the “opposite” annulus). “Time in annulus” is the amount of time in seconds that the rat spent in the target or opposite annulus area. “Number (#) of crossings” in annulus is the number of times the rat swam across the target or opposite annulus area.

α5β2γ2 subtype GABAAR = biological target: T2, α5β2γ2 subtype GABAAR (Homo sapiens, UniProt P18507+P31644); test: Positive allosteric modulator activity: potentiation of EC20 GABA current in oocytes; format: cell-based; conditions: read-out: GABA α5 Functional Data (potentiation), @ 100 nM, reported as ranges
T2 construct: expressed in transfected cells
T2 sequence (P31644 32-462): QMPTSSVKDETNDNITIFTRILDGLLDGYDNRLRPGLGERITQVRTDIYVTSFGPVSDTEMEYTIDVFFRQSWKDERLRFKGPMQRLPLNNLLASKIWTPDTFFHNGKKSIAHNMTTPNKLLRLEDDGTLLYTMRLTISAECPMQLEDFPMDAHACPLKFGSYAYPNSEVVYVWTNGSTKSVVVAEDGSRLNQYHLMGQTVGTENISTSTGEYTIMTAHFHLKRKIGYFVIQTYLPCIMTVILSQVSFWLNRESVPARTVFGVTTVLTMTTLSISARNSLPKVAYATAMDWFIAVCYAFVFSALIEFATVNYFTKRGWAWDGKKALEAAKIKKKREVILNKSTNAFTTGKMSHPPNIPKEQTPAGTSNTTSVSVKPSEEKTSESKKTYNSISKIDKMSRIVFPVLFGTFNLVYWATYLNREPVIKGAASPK
T2 sequence (P47870 25-512 partner limits assumed): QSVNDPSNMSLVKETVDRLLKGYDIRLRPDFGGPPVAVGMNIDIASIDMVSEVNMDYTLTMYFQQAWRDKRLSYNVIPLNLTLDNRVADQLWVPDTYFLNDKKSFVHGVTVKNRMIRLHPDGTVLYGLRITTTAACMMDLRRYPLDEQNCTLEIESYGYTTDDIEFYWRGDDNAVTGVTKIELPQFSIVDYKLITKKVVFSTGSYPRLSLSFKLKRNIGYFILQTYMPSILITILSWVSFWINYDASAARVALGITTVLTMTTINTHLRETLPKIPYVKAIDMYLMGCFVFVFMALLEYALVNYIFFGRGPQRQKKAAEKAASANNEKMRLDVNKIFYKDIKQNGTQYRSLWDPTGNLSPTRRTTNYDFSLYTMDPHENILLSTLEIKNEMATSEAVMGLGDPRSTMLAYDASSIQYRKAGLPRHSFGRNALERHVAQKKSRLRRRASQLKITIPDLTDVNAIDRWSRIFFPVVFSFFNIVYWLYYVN
T2 sequence (P18507 40-467 limits assumed): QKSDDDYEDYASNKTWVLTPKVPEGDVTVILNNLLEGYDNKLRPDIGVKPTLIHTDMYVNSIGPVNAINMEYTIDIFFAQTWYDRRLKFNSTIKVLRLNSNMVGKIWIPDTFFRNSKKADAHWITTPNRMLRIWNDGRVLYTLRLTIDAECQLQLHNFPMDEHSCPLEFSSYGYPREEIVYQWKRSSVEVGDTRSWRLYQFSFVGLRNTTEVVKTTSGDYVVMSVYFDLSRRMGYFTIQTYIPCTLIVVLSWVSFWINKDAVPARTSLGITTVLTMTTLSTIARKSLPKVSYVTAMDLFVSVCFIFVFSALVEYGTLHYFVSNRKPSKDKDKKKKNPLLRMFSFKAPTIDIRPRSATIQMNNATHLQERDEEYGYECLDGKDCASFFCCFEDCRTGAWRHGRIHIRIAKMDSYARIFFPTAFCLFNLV
How it was run: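 Xenopus oocytes injected with 1 ng α5:β2:γ2 cDNA (1:1:10 by weight) and recorded on day 2 by two-electrode voltage clamp under MBS superfusion. Potentiation (%) = Itest/IGABA at EC20 GABA; each oocyte used for one concentration only.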

MAM-treated rats = conditions: cited from earlier work
[3] = probe test 24 hr. after training

SMILES: CCOC(=O)c1ncn2c1Cn1c(C)nnc1-c1cc(OC)ccc1-2
- memory performance relative to vehicle control (aged-impaired (AI) rats [1]; 3 mg/kg, t(7)=4.13, p=0.004, or t(7)=3.08, p=0.018): significantly improved memory performance
- memory performance relative to vehicle control (aged-impaired (AI) rats [1]; 10 mg/kg, p 0.026): significantly improved memory performance
- effect on Ro 15-4513 binding in hippocampus (GABAA α5 receptor; 0.01-10 mg/kg): reduced; also recorded: blocked
- effect on Ro 15-4513 levels (binding) in cerebellum (GABAA α5 receptor; 0.01-10 mg/kg): without affecting; also recorded: did not affect
- GABAA α5 receptor occupancy (GABAA α5 receptor; 10 mg/kg): > 90%

SMILES: CC1(C)CC(=O)c2c(SCCCO)sc(-c3nccs3)c2C1 [6,6 dimethyl-3-(3-hydroxypropyl)thio-1-(thiazol-2-yl)-6,7-dihydro-2-benzothiophen-4(5H)-one]
- time to find the escape platform (aged-impaired (AI) rats [2]; beginning of training (block 1)): about 24 seconds
- time to find the escape platform (aged-impaired (AI) rats [2]; end of training (block 4)): about 9.6 seconds
- number of crossings of target annulus compared to opposite annulus (aged-impaired (AI) rats [2]; [3]): more often
- time in target annulus compared to opposite annulus (aged-impaired (AI) rats [2]; [3]): significantly more time in the target annulus

SMILES: COc1ccc2c(c1)-n1nncc1Cc1c(C#CCc3cccc(F)c3)ncn1-2 [Compound 419]
- activation at 0.1 µM (α5β2γ2 subtype GABAAR): 20 to 50%

SMILES: COc1ccc2c(c1)-n1nncc1Cc1c(C#CCc3ccccc3OC(F)(F)F)ncn1-2 [Compound 420]
- activation at 0.1 µM (α5β2γ2 subtype GABAAR): 5 to 20%

SMILES: COCc1nnc2n1Cc1c(C#CCc3cccc(F)c3)ncn1-c1ccc(Cl)cc1-2 [Compound 421]
- activation at 0.1 µM (α5β2γ2 subtype GABAAR): 20 to 50%

SMILES: COCc1nnc2n1Cc1c(C#CCc3cccc(Cl)c3)ncn1-c1ccc(Cl)cc1-2 [Compound 422]
- activation at 0.1 µM (α5β2γ2 subtype GABAAR): 20 to 50%

SMILES: COCc1nnc2n1Cc1c(C#CCc3cccc(OC(F)(F)F)c3)ncn1-c1ccc(Cl)cc1-2 [Compound 423]
- activation at 0.1 µM (α5β2γ2 subtype GABAAR): 5 to 20%

SMILES: CC(C)C#Cc1ccc2c(c1)-n1nncc1Cc1c(Br)ncn1-2 [Compound 454]
- activation at 0.1 µM (α5β2γ2 subtype GABAAR): 5 to 20%

SMILES: CCOC(=O)c1ncn2c1CN(C)C(=O)c1cc(N=[N+]=[N-])ccc1-2 [Ro 15-4513]
- levels of Ro 15-4513 in hippocampus compared with cerebellum (GABAA α5 receptor; tracer 1 μg/kg, after vehicle administration): > 5 fold

SMILES: C#Cc1ccc2c(c1)C(c1ccccc1F)=N[C@H](C)c1c(C(=O)OCC)ncn1-2 [SH-053-2′F—R—CH3]
- number of spontaneously active DA neurons in the ventral tegmental area (VTA) (MAM-treated rats; MAM rats, systemic or infused into ventral HPC, to levels of saline-treated rats): reduces
- increased locomotor response to amphetamine (MAM-treated rats; MAM-treated rats): reduced
- cortical-evoked responses of HPC neurons (MAM-treated rats; saline-treated and MAM-treated animals): diminished
